# In patent publication US20110092490A1, “PYRIMIDINES, TRIAZINES AND THEIR USE AS PHARMACEUTICAL AGENTS” (THE UNIVERSITY OF NOTTINGHAM, priority 2008, published 2011):
# Where two headings read alike, the source gives them in different places.
# What was measured:
# HCT-116 = experiment: 72-h MTT cytotoxicity assay; assay type: cell-based, human; details: for GI50: Homo sapiens, HCT-116, HCT116 cells, 72-h MTT
# Method: (§1) MTT cytotoxicity assay. […] Human tumour cell lines were obtained from ECACC (European Collection of Cell Cultures). Standard 72-h MTT (thiazolyl blue; 3-[4,5-dimethylthiazol-2-yl]-2,5-diphenyltetrazolium bromide, 2 mg/ml in phosphate buffered saline) assays were performed. In short: cells were seeded into 96-well plates according to doubling time and incubated overnight at 37° C. Test compounds were made up in DMSO and a ⅓ dilution series prepared in 100 μL cell media, added to cells (in triplicates) and incubated for 72 hr at 37° C. MTT was made up as a stock of 5 mg/mL in cell media and filter-sterilised. Media was removed from cells followed by a wash with 200 μL PBS. MTT solution was then added at 20 μL per well and incubated in the dark at 37° C. for 4 h. MTT solution was removed and cells again washed with 200 μL PBS. MTT dye was solubilised with 200 μL per well of DMSO with agitation. Absorbance was read at 550 nm on an Anthos Labtec Systems plate reader.
# MCF-7 = experiment: 72-h MTT cytotoxicity assay; assay type: cell-based, human; details: for GI50: Homo sapiens, MCF7 cells, 72-h MTT
# Method: as §1
# A2780 = experiment: 72-h MTT cytotoxicity assay; assay type: cell-based; details: read-out: 72-h MTT IC50 (μM), human cell line, ovarian carcinoma
# Method: (§2) MTT cytotoxicity assay. The compounds from the examples above were subjected to a standard cellular proliferation assay using the method described previously (Haselsberger, K. et al. Anti Cancer Drugs 1996, 7, (3), 331-8. Loveland, B. E. et al. Biochemistry International 1992, 27, (3), 501-10). Human tumour cell lines were obtained from ECACC (European Collection of Cell Cultures). Standard 72-h MTT (thiazolyl blue; 3-[4,5-dimethylthiazol-2-yl]-2,5-diphenyltetrazolium bromide, 2 mg/ml in phosphate buffered saline) assays were performed. In short: cells were seeded into 96-well plates according to doubling time and incubated overnight at 37° C. Test compounds were made up in DMSO and a ⅓ dilution series prepared in 100 μL cell media, added to cells (in triplicates) and incubated for 72 hr at 37° C. MTT was made up as a stock of 5 mg/mL in cell media and filter-sterilised. Media was removed from cells followed by a wash with 200 μL PBS. MTT solution was then added at 20 μL per well and incubated in the dark at 37° C. for 4 h. MTT solution was removed and cells again washed with 200 μL PBS. MTT dye was solubilised with 200 μL per well of DMSO with agitation. Absorbance was read at 550 nm on an Anthos Labtec Systems plate reader.
# A549 = experiment: 72-h MTT cytotoxicity assay; assay type: cell-based; details: read-out: 72-h MTT IC50 (μM), human cell line, lung
# Method: as §2
# HeLa = experiment: 72-h MTT cytotoxicity assay; assay type: cell-based; details: read-out: 72-h MTT IC50 (μM), human cell line, cervix
# Method: as §2
# MDA-MB-231 = experiment: 72-h MTT cytotoxicity assay; assay type: cell-based; details: read-out: 72-h MTT IC50 (μM), human cell line, breast
# Method: as §2
# Mia-Paca-2 = experiment: 72-h MTT cytotoxicity assay; assay type: cell-based; details: read-out: 72-h MTT IC50 (μM), human cell line, pancreatic carcinoma
# Method: as §2
# NCI-H460 = experiment: 72-h MTT cytotoxicity assay; assay type: cell-based; details: read-out: 72-h MTT IC50 (μM), human cell line, lung
# Method: as §2
# PANC W1 = experiment: 72-h MTT cytotoxicity assay; assay type: cell-based; details: read-out: 72-h MTT IC50 (μM), human cell line, pancreatic carcinoma
# Method: as §2
# Human tumour cell lines = experiment: 72-h MTT cytotoxicity assay, human tumour cell lines (panel / mean); assay type: cell-based; details: read-out: 72-h MTT IC50 (μM), mean over the nine human cell lines of Table A2
# Method: as §2
# CDK2 = CDK2 (Homo sapiens, UniProt P24941); experiment: Kinase assay (radioactive phosphate incorporation); assay type: biochemical; details: CDK2-cyclinE; read-out: Kinase inhibition IC50 CDK2-cyclinE
# Method: (§3) Kinase assays. […] This was achieved by measurement of incorporation of radioactive phosphate from ATP into appropriate polypeptide substrates. Recombinant protein kinases and kinase complexes were produced or obtained commercially. Assays were performed using 96-well plates and appropriate assay buffers (typically 25 mM β-glycerophosphate, 20 mM MOPS, 5 mM EGTA, 1 mM DTT, 1 mM […], pH 7.4), into which were added 2-4 μg of active enzyme with appropriate substrates. The reactions were initiated by addition of Mg/ATP mix (15 mM MgCl2+100 μM ATP with 30-50 kBq per well of [γ-^32P]-ATP) and mixtures incubated as required at 30° C.; Reactions were stopped on ice, followed by filtration through p81 filterplates or GF/C filterplates (Whatman Polyfiltronics, Kent, UK). After washing 3 times with 75 mM aq orthophosphoric acid, plates were dried, scintillant added and incorporated radioactivity measured in a scintillation counter (TopCount, Packard Instruments, Pangbourne, Berks, UK). Compounds for kinase assay were made up as 10 mM stocks in DMSO and diluted into 10% DMSO in assay buffer.
# CDK9 = CDK9 (Homo sapiens, UniProt P50750); experiment: Kinase assay (radioactive phosphate incorporation); assay type: biochemical
# Sequence of CDK9 (P50750 whole entry, species assumed): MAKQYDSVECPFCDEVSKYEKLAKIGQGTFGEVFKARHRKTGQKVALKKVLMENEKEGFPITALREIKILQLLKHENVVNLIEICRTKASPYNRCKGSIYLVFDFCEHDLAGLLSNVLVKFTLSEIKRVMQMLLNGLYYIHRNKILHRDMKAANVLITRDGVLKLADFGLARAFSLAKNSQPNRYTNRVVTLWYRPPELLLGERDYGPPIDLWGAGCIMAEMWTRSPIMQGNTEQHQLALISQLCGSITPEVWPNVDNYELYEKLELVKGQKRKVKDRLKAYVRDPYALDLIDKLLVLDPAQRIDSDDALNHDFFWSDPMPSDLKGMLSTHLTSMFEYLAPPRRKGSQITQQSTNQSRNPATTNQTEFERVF
# Sequence of CDK9 (O60563 whole entry partner, species assumed): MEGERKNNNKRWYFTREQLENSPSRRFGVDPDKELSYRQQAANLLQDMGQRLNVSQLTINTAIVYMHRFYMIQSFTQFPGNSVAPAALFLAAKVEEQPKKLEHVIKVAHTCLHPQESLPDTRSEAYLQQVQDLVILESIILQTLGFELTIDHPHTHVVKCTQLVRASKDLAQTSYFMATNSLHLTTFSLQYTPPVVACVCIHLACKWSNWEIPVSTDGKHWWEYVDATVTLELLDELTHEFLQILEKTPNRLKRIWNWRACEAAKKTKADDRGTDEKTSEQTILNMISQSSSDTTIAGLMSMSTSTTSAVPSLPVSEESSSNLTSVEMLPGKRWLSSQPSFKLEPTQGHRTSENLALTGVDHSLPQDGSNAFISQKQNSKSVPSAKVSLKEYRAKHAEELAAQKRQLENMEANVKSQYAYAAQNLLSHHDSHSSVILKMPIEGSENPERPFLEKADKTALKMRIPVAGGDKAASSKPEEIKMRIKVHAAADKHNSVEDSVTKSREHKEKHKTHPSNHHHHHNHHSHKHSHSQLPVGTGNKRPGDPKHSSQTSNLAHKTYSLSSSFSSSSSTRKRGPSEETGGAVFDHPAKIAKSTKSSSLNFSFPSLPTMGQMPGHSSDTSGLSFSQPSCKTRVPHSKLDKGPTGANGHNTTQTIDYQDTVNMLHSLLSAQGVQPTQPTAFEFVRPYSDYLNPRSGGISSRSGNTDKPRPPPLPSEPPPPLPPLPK
# Method: as §3
# CDK7 = CDK7 (Homo sapiens, UniProt P50613); experiment: Kinase assay (radioactive phosphate incorporation); assay type: biochemical; details: CDK7-cyclinH; read-out: Kinase inhibition IC50 CDK7-cyclinH
# Sequence of CDK7 (P50613 whole entry, species assumed): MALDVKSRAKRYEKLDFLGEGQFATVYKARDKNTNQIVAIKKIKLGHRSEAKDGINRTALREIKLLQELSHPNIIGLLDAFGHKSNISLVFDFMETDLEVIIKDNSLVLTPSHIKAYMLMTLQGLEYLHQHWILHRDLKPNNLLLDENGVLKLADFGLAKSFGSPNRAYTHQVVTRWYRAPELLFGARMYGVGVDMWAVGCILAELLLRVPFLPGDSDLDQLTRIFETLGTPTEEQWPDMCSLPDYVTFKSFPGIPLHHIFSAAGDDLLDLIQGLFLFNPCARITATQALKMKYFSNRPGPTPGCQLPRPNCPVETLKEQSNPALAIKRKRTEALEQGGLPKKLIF
# Sequence of CDK7 (P51946 whole entry partner, species assumed): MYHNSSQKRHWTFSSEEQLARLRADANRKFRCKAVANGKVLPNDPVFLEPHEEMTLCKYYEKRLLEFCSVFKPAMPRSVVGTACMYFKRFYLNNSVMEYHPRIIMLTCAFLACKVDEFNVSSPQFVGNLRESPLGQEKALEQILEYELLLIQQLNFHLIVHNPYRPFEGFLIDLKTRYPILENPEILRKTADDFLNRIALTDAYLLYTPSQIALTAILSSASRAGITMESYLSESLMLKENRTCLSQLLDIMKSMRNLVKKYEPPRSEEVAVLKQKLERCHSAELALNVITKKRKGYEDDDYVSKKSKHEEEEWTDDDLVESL
# Method: Kinase assays. The compounds from the examples above were investigated for their ability to inhibit the enzymatic activity of various protein kinases using the method as disclosed in Wang, S. et al. J Med Chem 2004, 47, 1662. This was achieved by measurement of incorporation of radioactive phosphate from ATP into appropriate polypeptide substrates. Recombinant protein kinases and kinase complexes were produced or obtained commercially. Assays were performed using 96-well plates and appropriate assay buffers (typically 25 mM β-glycerophosphate, 20 mM MOPS, 5 mM EGTA, 1 mM DTT, 1 mM […], pH 7.4), into which were added 2-4 μg of active enzyme with appropriate substrates. The reactions were initiated by addition of Mg/ATP mix (15 mM MgCl2+100 μM ATP with 30-50 kBq per well of [γ-^32P]-ATP) and mixtures incubated as required at 30° C.; Reactions were stopped on ice, followed by filtration through p81 filterplates or GF/C filterplates (Whatman Polyfiltronics, Kent, UK). After washing 3 times with 75 mM aq orthophosphoric acid, plates were dried, scintillant added and incorporated radioactivity measured in a scintillation counter (TopCount, Packard Instruments, Pangbourne, Berks, UK). Compounds for kinase assay were made up as 10 mM stocks in DMSO and diluted into 10% DMSO in assay buffer.
# [1] = 72-h MTT cytotoxicity assay; assay type: cell-based; details: human, MRC5 cells
# Method: as §1
# [2] = CDK9-cyclinT1, read-out: Kinase inhibition IC50 CDK9-cyclinT1
Structure (SMILES),GI50 (HCT-116) [nM],GI50 (MCF-7) [nM],GI50 at 72 h [1] [nM],other results
"CNc1nc(C)c(-c2nc(Nc3ccc(C)c(S(=O)(=O)N4CCOCC4)c3)ncc2C#N)s1 [Example 1.1, 4-(4-Methyl-2-methylamino-thiazol-5-yl)-2-[4-methyl-3-(morpholine-4-sulfonyl)-phenylamino]-pyrimidine-5-carbonitrile]",60,60,3140,"IC50 (HCT-116; read-out: 72-h MTT IC50 (μM), human cell line HCT-116 (origin not given, stands under cervix), 72 h): 0.06 µM; IC50 (MCF-7; MCF7, read-out: 72-h MTT IC50 (μM), human cell line, breast, MCF-7, 72 h): 0.06 µM; IC50 (A2780): 0.147 µM; IC50 (A549): 0.534 µM; IC50 (HeLa): 0.661 µM; IC50 (MDA-MB-231): 0.923 µM; IC50 (Mia-Paca-2): 0.468 µM; IC50 (NCI-H460): 0.681 µM; IC50 (PANC W1): 0.366 µM; IC50 (Human tumour cell lines): 0.433 µM; IC50 (CDK2): 232 nM; IC50 (CDK9; [2]): 41 nM; IC50 (CDK7): > 1000 nM"
"CNc1nc(C)c(-c2nc(Nc3ccc(O)cc3)ncc2C#N)s1 [Example 1.2, 2-(4-Hydroxy-phenylamino)-4-(4-methyl-2-methylamino-thiazol-5-yl)-pyrimidine-5-carbonitrile]",400,230,1050,
"CNc1nc(C)c(-c2nc(Nc3cccc(O)c3)ncc2C#N)s1 [Example 1.3, 2-(3-Hydroxy-phenylamino)-4-(4-methyl-2-methylamino-thiazol-5-yl)-pyrimidine-5-carbonitrile]",,,,IC50 (CDK9): 19 nM
CNc1nc(C)c(-c2nc(Nc3cccc(C(=O)N4CCOCC4)c3)ncc2C#N)s1 [Example 1.4],590,820,4430,IC50 (CDK2): 147 nM; IC50 (CDK9; [2]): 85 nM; IC50 (CDK7): 3740 nM
"CNc1nc(C)c(-c2nc(Nc3cccc(C(=O)N4CCN(C(C)=O)CC4)c3)ncc2C#N)s1 [Example 1.5, 2-(3-(4-Acetylpiperazine-1-carbonyl)phenylamino)-4-(4-methyl-2-(methylamino)-thiazol-5-yl)pyrimidine-5-carbonitrile]",,,,IC50 (CDK2): 52 nM; IC50 (CDK9; [2]): 33 nM
"CNc1nc(C)c(-c2nc(Nc3cccc(C(=O)O)c3)ncc2C#N)s1 [Example 1.6, 3-(5-cyano-4-(4-methyl-2-(methylamino)thiazol-5-yl)pyrimidin-2-ylamino)benzoic acid]",550,1870,> 100000,
"CNc1nc(C)c(-c2nc(Nc3ccc(S(N)(=O)=O)cc3)ncc2C#N)s1 [Example 1.8, 4-(5-cyano-4-(4-methyl-2-(methylamino)thiazol-5-yl)pyrimidin-2-ylamino)benzenesulfonamide]",340,1640,26000,
"COc1cccc(-c2nc(Cl)nc(Nc3ccc(O)cc3)n2)c1 [Example 2.1, 4-(4-chloro-6-(3-methoxyphenyl)-1,3,5-triazin-2-ylamino)phenol]",,,,melting point: 93.5 to 94 °C
"COc1cccc(-c2nc(Cl)nc(Nc3cccc([N+](=O)[O-])c3)n2)c1 [Example 2.2, 4-chloro-6-(3-methoxyphenyl)-N-(3-nitrophenyl)-1,3,5-triazin-2-amine]",,,,melting point: 196.9 to 197.2 °C
"COc1cccc(-c2nc(Cl)nc(Nc3cccc(Br)c3)n2)c1 [Example 2.3, N-(3-bromophenyl)-4-chloro-6-(3-methoxyphenyl)-1,3,5-triazin-2-amine]",,,,melting point: 141.9 to 142.1 °C
"COc1cccc(-c2nc(Cl)nc(Nc3ccc(C)c(S(=O)(=O)N4CCOCC4)c3)n2)c1 [Example 2.4, 4-chloro-6-(3-methoxyphenyl)-N-(4-methyl-3-(morpholinosulfonyl)phenyl)-1,3,5-triazin-2-amine]",530,1580,580,
"COc1cccc(-c2nc(N)nc(Nc3cccc([N+](=O)[O-])c3)n2)c1 [Example 2.6, 6-(3-methoxyphenyl)-N2-(3-nitrophenyl)-1,3,5-triazine-2,4-diamine]",7090,7070,37600,
"COc1cccc(-c2nc(NO)nc(Nc3cccc([N+](=O)[O-])c3)n2)c1 [Example 2.8, 4-(hydroxyamino)-6-(3-methoxyphenyl)-N-(3-nitrophenyl)-1,3,5-triazin-2-amine]",3480,6420,4240,
